Columns and labels:
Type in all cases: cell-based, human
[1] = test system: hair follicle melanocytes (HFM); experiment: Melanin content in hair follicle melanocytes (HFM); details: 4 days incubation, baseline = 100%
Description: Particularly, the activity of an agent in blocking an opioid receptor can be further determined by measuring the efficacy of the agent to cause a substantial increase of the total intracellular melanin production in human primary follicular melanocytes.
The effect of opioid antagonists on melanin production in hair follicular melanocytes can be measured in a cell-based in vitro assay.
(§1) Melanocytes are isolated and cultured from hair follicles derived from a normal adult scalp biopsy. Follicular melanocytes are passaged in T25 plastic culture flasks to maximum 4th to maximize in vivo-like behavior. Cells are seeded into flasks and after 2 days are incubated with test substances added to the cell growth medium. The experimental set-up includes flasks in which the cells are either not treated (control) or incubated for 4 days with the appropriate amount of opioid antagonists, to assess the effect on melanin production.
(§2) After 4 days incubation, control and treated cells are collected and melanin is extracted from lysed cells. Melanin is quantified by measuring the spectrophotometric OD at 475 nm and calculating against a standardized curve. The resulting value is standardized against the number of cells counted per treatment and is given as micrograms of melanin per million cells.
as §1, with “cultured either” for “cultured”, “follicles or epidermal skin” for “follicles”, “Follicular and epidermal” for “Follicular”
as §2, with “million cells. As control known melanin production inducing references IBMX and full medium are used.” for “million cells.”

[2] = test system: hair follicle melanocytes; experiment: Proliferation of hair follicle melanocytes (direct cell counting, hemocytometry); details: hair follicle cells, baseline = 100%
Method: as §1, with “cultured either” for “cultured”, “follicles or epidermal skin” for “follicles”, “Follicular and epidermal” for “Follicular”
(§3) Furthermore, the hair follicle cells were analysed for their proliferation and dentricity. Proliferation has been assessed by direct cell counting using hemocytometry. Cell dendricity has been assessed by phase contrast microscopy with representative photo documentation. It can be seen that the opioate receptor antagonists also have an effect on the proliferation and dentricity further supporting the use of the opiate receptor antagonists for the prevention of the graying of hair and/or for restoration and/or maintenance of the natural hair color

[3] = test system: hair follicle melanocytes; experiment: Dendricity of hair follicle melanocytes (phase contrast microscopy); details: hair follicle cells, baseline = 100%
Method: as §1, with “cultured either” for “cultured”, “follicles or epidermal skin” for “follicles”, “Follicular and epidermal” for “Follicular”
as §3

[4] = test system: epidermal melanocytes (EM); experiment: Melanin content in epidermal melanocytes (EM); details: 4 days incubation, baseline = 100%
Method: as §1, with “cultured either” for “cultured”, “follicles or epidermal skin” for “follicles”, “Follicular and epidermal” for “Follicular”
as §2, with “million cells. As control known melanin production inducing references IBMX and full medium are used.” for “million cells.”

CC(C)Cn1c(=O)n(C)c(=O)c2[nH]cnc21 [IBMX]
Melanin content in HFM ([1]; concentration not given): 140%
Proliferation of melanocytes ([2]; concentration not given): 140%
Dentricity ([3]; concentration not given): 148%

C=CCN1CC[C@]23c4c5ccc(O)c4O[C@H]2/C(=N/N=C2\CC[C@@]4(O)[C@H]6Cc7ccc(O)c8c7[C@@]4(CCN6CC=C)[C@H]2O8)CC[C@@]3(O)[C@H]1C5 [Naloxonazine]
Melanin content in HFM ([1]; 1 μM): 120%
Melanin content in HFM ([1]; 100 μM): 242%
Melanin content in EM ([4]; 1 μM): 40%
Melanin content in EM ([4]; 100 μM): 25%
Proliferation of melanocytes ([2]; 1 μM): 109%
Dentricity ([3]; 1 μM): 105%

C=CCN1CC[C@]23c4c5ccc(O)c4O[C@H]2C(=O)CC[C@@]3(O)[C@H]1C5 [Naloxone]
Melanin content in EM ([4]; 1 μM): 61%
Melanin content in EM ([4]; 100 μM): 54%
Proliferation of melanocytes ([2]; 1 μM): 123%
Dentricity ([3]; 1 μM): 110%
Dentricity ([3]; 100 μM): 104%

beta endorphin (YGGFMTSEKSQTPLVTLFKNAIIKNAYKKGE; Beta-endorphin; UniProt P01189 237-267, looked up) [μ-opiate agonist]
Melanin content in HFM ([1]; concentration not given): 92%

Reference: patent publication US20090325857A1, “USE OF OPIOID RECEPTOR ANTAGONISTS” (priority 2006, published 2009)
